Data as given in patent US20240158379A1, “NOVEL BENZOFURAN, BENZOTHIOPHENE, AND INDOLE ANALOGS THAT INHIBIT THE FORMATION OF TAU OLIGOMERS AND THEIR METHOD OF USE” (OLIGOMERIX INC., priority 2016, published 2024).
pIC50: −log10 of the molar value.

target: recombinant human tau 4R2N (Homo sapiens (Human), UniProt P10636); experiment: AlphaLisa Assay (ALA), primary screen for inhibition of tau oligomer formation; format: biochemical; conditions: tau target 300 nM, Tris-HCl pH 7.4, 4 hours room temperature, compound 0.098 uM-50 uM
Sequence (P10636 other isoform, or with tags, fused parts or gaps): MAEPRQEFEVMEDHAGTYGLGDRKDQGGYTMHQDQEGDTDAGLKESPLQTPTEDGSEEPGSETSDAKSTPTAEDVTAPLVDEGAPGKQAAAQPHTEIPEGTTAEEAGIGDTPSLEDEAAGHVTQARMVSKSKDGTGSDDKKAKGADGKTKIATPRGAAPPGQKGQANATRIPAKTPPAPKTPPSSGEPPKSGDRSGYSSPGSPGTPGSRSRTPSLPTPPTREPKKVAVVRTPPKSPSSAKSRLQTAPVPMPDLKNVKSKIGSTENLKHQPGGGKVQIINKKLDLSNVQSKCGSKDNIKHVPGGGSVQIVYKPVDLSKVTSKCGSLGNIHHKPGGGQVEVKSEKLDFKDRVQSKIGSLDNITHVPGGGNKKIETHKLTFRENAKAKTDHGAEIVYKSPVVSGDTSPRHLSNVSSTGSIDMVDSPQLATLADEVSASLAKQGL
Text: Bacterial recombinant human tau 4R2N (the largest isoform of tau in the central nervous system, 441 amino acids in length, Seq ID 1) constructs with either 6×-His or StrepII N-terminal epitope tags were purified from bacterial lysate using denaturing conditions to prepare tau in its monomeric form.
ALA Assay: AlphaLisa Assay (ALA) was used as a primary screen for identifying compounds that inhibit tau oligomer formation. It is a bead based assay that only gives signal when the beads are in close proximity to each other. When the tau monomer (target) is incubated it forms higher order aggregates (dimer, trimer, tetramer, etc) so that when the donor and acceptor beads bind to the epitope tags of tau they are in close proximity and generate signal.
Tau target (equal mixture of each construct at 300 nM) was prepared in buffer (Tris-HCl pH 7.4) and was incubated in 96-well plates at room temperature for 4 hours with vehicle control (DMSO) and a dose range of a compound of the disclosure (0.098 uM-50 uM). AlphaLisa acceptor beads & donor beads with ligands to the epitope tags (Perkin Elmer) were diluted (final 20 ug/mL per bead) in bead buffer (25 mM HEPES pH 7.4, 100 mM NaCl, 0.1% Tween-20), added to the wells and incubated 1 hour at room temperature. The positive control (non-incubated target) & blank (no tau) were prepared and mixed with beads in bead buffer and the plate was read immediately using the EnVision plate reader (Perkin Elmer).

Row | pIC50 | Structure (SMILES)
1 | 5.93 | CC(=O)CCc1oc2cc(Br)ccc2c1-c1ccc(C)o1 [Example 21, 4-(6-Bromo-3-(5-methylfuran-2-yl)benzofuran-2-yl)butan-2-one]
2 | < 5.00 | CC(=O)CCc1oc2ccc(Br)cc2c1CCC(C)C [Example 9, 4-[5-Bromo-3-(3-methyl-butyl)-benzofuran-2-yl]-butan-2-one]
3 | 5.88 | CC(=O)CCc1oc2ccc(-c3cccs3)cc2c1-c1ccc(C)o1 [Example 8, 4-(3-(5-Methylfuran-2-yl)-5-(thiophen-2-yl)benzofuran-2-yl)butan-2-one]
4 | 4.68 | COc1cc(-c2ccc3oc(CCC(C)=O)c(-c4ccc(Cl)s4)c3c2)ccn1 [Example 19, 4-(3-(5-chlorothiophen-2-yl)-5-(2-methoxypyridin-4-yl)benzofuran-2-yl)butan-2-one]
5 | 5.22 | Cc1ccc(-c2c(CCC(=O)O)oc3ccc(Br)cc23)o1 [Example 12, 3-[5-Bromo-3-(5-methyl-furan-2-yl)-benzofuran-2-yl]-propionic acid]
6 | 5.47 | CC(=O)CCc1oc2cc(-c3ccncc3)ccc2c1-c1ccc(C)o1 [Example 22, 4-(3-(5-Methylfuran-2-yl)-6-(pyridin-4-yl)benzofuran-2-yl)butan-2-one]
7 | 5.61 | COc1ccc(-c2ccc3c(-c4ccc(C)o4)c(CCC(C)=O)oc3c2)cn1 [Example 28, 4-(6-(6-Methoxypyridin-3-yl)-3-(5-methylfuran-2-yl)benzofuran-2-yl)butan-2-one]
8 | < 5.00 | CC(=O)CCc1oc2ccc(Br)cc2c1CCc1ccc(C)cc1 [Example 26, 4-(5-Bromo-3-(2-p-tolylethyl)benzofuran-2-yl)butan-2-one]
9 | 5.24 | Cc1ccc(-c2c(CCC(=O)N3CCC(O)CC3)oc3ccc(Br)cc23)o1 [Example 13, 3-[5-Bromo-3-(5-methyl-furan-2-yl)-benzofuran-2-yl]-1-(4-hydroxy-piperidin-1-yl)-propan-1-one]
10 | 5.12 | CC(=O)CCc1oc2ccc(-c3ccncc3)cc2c1-c1ccc(Cl)s1 [Example 18, 4-(3-(5-Chlorothiophen-2-yl)-5-(pyridin-4-yl)benzofuran-2-yl)butan-2-one]
11 | 4.81 | CC(=O)CCc1oc2ccc(-c3ccc(Cl)nc3)cc2c1-c1ccc(Cl)s1 [Example 20, 4-(5-(6-Chloropyridin-3-yl)-3-(5-chlorothiophen-2-yl)benzofuran-2-yl)butan-2-one]
